Measurements from ChEMBL document CHEMBL3046208, “Natural and synthetic podolactones with potential use as natural herbicide models” (2000).
Activity calls are given as the source filed them.

Columns and labels:
Format in all cases: functional
[1] = test system: Allium cepa; experiment: Inhibition of germination of Allium cepa (onion) at 0.1 mM after 5 days relative to untreated control; conditions: 120 h
[2] = test system: Lepidium sativum; experiment: Stimulation of germination of Lepidium sativum at 0.1 mM after 5 days relative to untreated control
[3] = test system: Allium cepa; experiment: Stimulation of germination of Allium cepa (onion) at 0.1 mM after 5 days relative to untreated control
[4] = test system: Lactuca sativa; experiment: Inhibition of shoot length of Lactuca sativa cv. Roman (lettuce) at 0.1 mM after 5 days relative to untreated control; conditions: 120 h
[5] = test system: Lepidium sativum; experiment: Stimulation of root length of Lepidium sativum at 0.1 mM after 5 days relative to untreated control
[6] = test system: Triticum aestivum; experiment: Inhibition of root length of Triticum aestivum (wheat) at 0.1 mM after 5 days relative to untreated control
[7] = test system: Lactuca sativa; experiment: Stimulation of germination of Lactuca sativa cv. Nigra (lettuce) at 0.1 mM after 5 days relative to untreated control
[8] = test system: Lactuca sativa; experiment: Inhibition of root length of Lactuca sativa cv. Roman (lettuce) at 0.1 mM after 5 days relative to untreated control; conditions: 120 h
[9] = test system: Lepidium sativum; experiment: Inhibition of germination of Lepidium sativum at 0.1 mM after 5 days relative to untreated control
[10] = test system: Triticum aestivum; experiment: Stimulation of shoot length of Triticum aestivum (wheat) at 0.1 mM after 5 days relative to untreated control
[11] = test system: Lactuca sativa; experiment: Inhibition of root length of Lactuca sativa cv. Nigra (lettuce) at 0.1 mM after 5 days relative to untreated control; conditions: 120 h
[12] = test system: Lactuca sativa; experiment: Inhibition of shoot length of Lactuca sativa cv. Nigra (lettuce) at 0.1 mM after 5 days relative to untreated control; conditions: 120 h
[13] = test system: Solanum lycopersicum; experiment: Inhibition of germination of Solanum lycopersicum (tomato) at 0.1 mM after 5 days relative to untreated control; conditions: 120 h
[14] = test system: Hordeum vulgare; experiment: Stimulation of root length of Hordeum vulgare (barley) at 0.1 mM after 5 days relative to untreated control
[15] = test system: Solanum lycopersicum; experiment: Inhibition of root length of Solanum lycopersicum (tomato) at 0.1 mM after 5 days relative to untreated control; conditions: 120 h
[16] = test system: Hordeum vulgare; experiment: Stimulation of shoot length of Hordeum vulgare (barley) at 0.1 mM after 5 days relative to untreated control
[17] = test system: Allium cepa; experiment: Inhibition of root length of Allium cepa (onion) at 0.1 mM after 5 days relative to untreated control
[18] = test system: Triticum aestivum; experiment: Stimulation of root length of Triticum aestivum (wheat) at 0.1 mM after 5 days relative to untreated control
[19] = test system: Solanum lycopersicum; experiment: Stimulation of shoot length of Solanum lycopersicum (tomato) at 0.1 mM after 5 days relative to untreated control
[20] = test system: Lactuca sativa; experiment: Inhibition of germination of Lactuca sativa cv. Roman (lettuce) at 0.1 mM after 5 days relative to untreated control; conditions: 120 h
[21] = test system: Lepidium sativum; experiment: Inhibition of root length of Lepidium sativum at 0.1 mM after 5 days relative to untreated control
[22] = test system: Triticum aestivum; experiment: Inhibition of shoot length of Triticum aestivum (wheat) at 0.1 mM after 5 days relative to untreated control
[23] = test system: Triticum aestivum; experiment: Stimulation of germination of Triticum aestivum (wheat) at 0.1 mM after 5 days relative to untreated control
[24] = test system: Lactuca sativa; experiment: Stimulation of shoot length of Lactuca sativa cv. Roman (lettuce) at 0.1 mM after 5 days relative to untreated control
[25] = test system: Lepidium sativum; experiment: Stimulation of shoot length of Lepidium sativum at 0.1 mM after 5 days relative to untreated control
[26] = test system: Allium cepa; experiment: Stimulation of shoot length of Allium cepa (onion) at 0.1 mM after 5 days relative to untreated control
[27] = test system: Lepidium sativum; experiment: Inhibition of shoot length of Lepidium sativum at 0.1 mM after 5 days relative to untreated control; conditions: 120 h
[28] = test system: Hordeum vulgare; experiment: Inhibition of root length of Hordeum vulgare (barley) at 0.1 mM after 5 days relative to untreated control; conditions: 120 h
[29] = test system: Lactuca sativa; experiment: Stimulation of root length of Lactuca sativa cv. Roman (lettuce) at 0.1 mM after 5 days relative to untreated control
[30] = test system: Lactuca sativa; experiment: Stimulation of germination of Lactuca sativa cv. Roman (lettuce) at 0.1 mM after 5 days relative to untreated control
[31] = test system: Allium cepa; experiment: Inhibition of shoot length of Allium cepa (onion) at 0.1 mM after 5 days relative to untreated control; conditions: 120 h
[32] = test system: Lactuca sativa; experiment: Stimulation of root length of Lactuca sativa cv. Nigra (lettuce) at 0.1 mM after 5 days relative to untreated control
[33] = test system: Lactuca sativa; experiment: Inhibition of germination of Lactuca sativa cv. Nigra (lettuce) at 0.1 mM after 5 days relative to untreated control; conditions: 120 h
[34] = test system: Hordeum vulgare; experiment: Stimulation of germination of Hordeum vulgare (barley) at 0.1 mM after 5 days relative to untreated control
[35] = test system: Solanum lycopersicum; experiment: Stimulation of root length of Solanum lycopersicum (tomato) at 0.1 mM after 5 days relative to untreated control
[36] = test system: Hordeum vulgare; experiment: Inhibition of shoot length of Hordeum vulgare (barley) at 0.1 mM after 5 days relative to untreated control
[37] = test system: Solanum lycopersicum; experiment: Inhibition of shoot length of Solanum lycopersicum (tomato) at 0.1 mM after 5 days relative to untreated control; conditions: 120 h
[38] = test system: Solanum lycopersicum; experiment: Stimulation of germination of Solanum lycopersicum (tomato) at 0.1 mM after 5 days relative to untreated control
[39] = test system: Allium cepa; experiment: Stimulation of root length of Allium cepa (onion) at 0.1 mM after 5 days relative to untreated control
[40] = test system: Lactuca sativa; experiment: Stimulation of shoot length of Lactuca sativa cv. Nigra (lettuce) at 0.1 mM after 5 days relative to untreated control
[41] = test system: Triticum aestivum; experiment: Inhibition of germination of Triticum aestivum (wheat) at 0.1 mM after 5 days relative to untreated control; conditions: 120 h
[42] = test system: Hordeum vulgare; experiment: Inhibition of germination of Hordeum vulgare (barley) at 0.1 mM after 5 days relative to untreated control; conditions: 120 h

COc1nc(C)nc(NC(=O)NS(=O)(=O)c2ccccc2OCCCl)n1 [LOGRAN]
inactive: Activity [2] | inhibition [9]
<20%: Activity [25]
> 40%: inhibition at 100 µM [4] | inhibition at 100 µM [8] | inhibition at 100 µM [11] | inhibition at 100 µM [12] | inhibition at 100 µM [15] | inhibition at 100 µM ([17]; 120 h) | inhibition at 100 µM [20] | inhibition at 100 µM ([21]; 120 h) | inhibition at 100 µM [28] | inhibition at 100 µM [31] | inhibition at 100 µM [33] | inhibition at 100 µM [37] | inhibition at 100 µM [41] | inhibition at 100 µM [42]
20%: inhibition at 100 µM [1] | Activity [3] | inhibition at 100 µM ([6]; 120 h) | Activity [10] | inhibition at 100 µM [13] | Activity [16] | Activity [18] | inhibition at 100 µM ([22]; 120 h) | inhibition at 100 µM ([36]; 120 h) | Activity [38]
>40%: Activity [5] | Activity [7] | Activity [14] | Activity [19] | Activity [23] | Activity [24] | Activity [26] | Activity [29] | Activity [30] | Activity [32] | Activity [34] | Activity [35] | Activity [39] | Activity [40]
< 20%: inhibition at 100 µM [27]

COC(=O)[C@@]1(C)CCC[C@@]2(C)[C@H]1CC=C1COC(=O)C[C@@H]12
> 40%: inhibition at 100 µM [15] | inhibition at 100 µM [42]
< 20%: inhibition at 100 µM [4] | inhibition at 100 µM [8] | inhibition at 100 µM [11] | inhibition at 100 µM [12] | inhibition at 100 µM [13] | inhibition at 100 µM [20] | inhibition at 100 µM [27] | inhibition at 100 µM [31] | inhibition at 100 µM [33] | inhibition at 100 µM [41]
>40%: Activity [34] | Activity [35]
20%: inhibition at 100 µM [1] | Activity [3] | Activity [14] | Activity [19] | inhibition at 100 µM [28] | inhibition at 100 µM [37]
<20%: Activity [7] | Activity [23] | Activity [24] | Activity [25] | Activity [26] | Activity [29] | Activity [30] | Activity [32] | Activity [38] | Activity [40]
inactive: Activity [2] | Activity [5] | inhibition [6] | inhibition [9] | Activity [10] | Activity [16] | inhibition [17] | Activity [18] | inhibition [21] | inhibition [22] | inhibition [36] | Activity [39]
